For orientation: EC50 means the concentration at which the effect is half-maximal. The term IC50 denotes the concentration at which inhibition is half-maximal. A low value points to inhibition by little substance.

Each structure is given as a SMILES string. The source made the active and inactive calls.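 The calls were made as follows: active = compounds giving half or more protection of infected cells from virus-caused growth loss, again on retest; inactive = the rest.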 Where a SMILES comes first, the peptide text is derived from it.

This assay deals with CEM cells HIV-1 protection, formazan growth assay. In words: NCI AIDS Antiviral Assay. Conditions: for IC50: measured here: growth of uninfected CEM cells. The essentials: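 Five concentrations of each compound were applied to infected and uninfected human CEM cells. Protection from HIV-1 was judged from growth measured with a soluble formazan assay.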

Consider `NC(Cc1ccccc1)C(=O)OCN1C(=O)C2C3C=CC(C2C1=O)C1C2C(=O)N(COC(=O)C(N)Cc4ccccc4)C(=O)C2C31` (stereo not given), for which the EC50 is > 200 µM and the 50% inhibitory concentration (IC50) amounted to 31.6 µM.
For `Cc1ccc(S(=O)(=O)NCCCN(CCCNS(=O)(=O)c2ccc(C)cc2)S(=O)(=O)c2ccc(C)cc2)cc1`, the EC50 was > 2.45 µM and the IC50 was > 2.45 µM.
As to `COc1ccc(-c2cc(-c3ccco3)c(C#N)c(=S)n2C2OC(COC(C)=O)C(OC(C)=O)C(OC(C)=O)C2OC(C)=O)cc1` (stereo not given), the concentration giving a half-maximal response (EC50) was 123 µM and the concentration for half-maximal inhibition (IC50) is 145 µM.
Regarding `C/C=C/C(=O)[C@@H](O)C(C)(C)C`, the outcome was inactive.
Turning to `CCN(CC)CCN1C(=O)c2cccc3cc([N+](=O)[O-])cc(c23)C1=O`, the EC50 is > 200 µM and the IC50 was 1.48 µM.
As to `Cc1ccc(OCC2OC(n3cnc4c(N(C)C)nc(Br)nc43)CC2Oc2ccc(C)cc2)cc1` (stereo not given), the EC50 was > 200 µM and the IC50 worked out at 31.6 µM.
On the same counts, the results for `CC(=O)C(C(C)=O)=C1CCCC(O)O1` (stereo not given) are > 200 µM and 174 µM.
For `O=c1cc(CNC2CC3CCC2C3)[nH]c(=O)[nH]1` (stereo not given), the outcome was inactive.
Regarding `C1=c2ccccc2=C2C(=C(c3ccccc3)C(c3ccccc3)=NN2c2ccccc2)S1`, the EC50 was > 4.68 µM and the IC50 is > 4.68 µM.
Regarding `CCCCN(CCCC)CCCCCCCN1CCCc2cc(OC)ccc21`, the EC50 was > 200 µM and the IC50 was determined as 17.8 µM.
In the case of `Cc1ccc(S(=O)(=O)NC(=O)NC23CC4CC(CC(F)(C4)C2)C3)cc1`, the EC50 was > 676 µM and the IC50 worked out at 339 µM.
The like results for `NC1CCC(N(CC(=O)O)CC(=O)O)C(N(CC(=O)O)CC(=O)O)C1` (stereo not given) were, in that order, > 200 µM and 112 µM.
For the compound `C[n+]1c2ccccc2c(CNC(CCC(N)=O)C(=O)O)c2ccccc21` (stereo not given), the outcome was inactive.
Consider `COc1cc2c(c(OC)c1OC)-c1oncc1CC2`, for which the concentration for a half-maximal effect (EC50) is 166 µM and the concentration for half-maximal inhibition (IC50) is 282 µM.
On the same counts, the results for `CN(C)COC(=S)[S-].CN(C)COC(=S)[S-].CN(C)COC(=S)[S-].[Fe+6]` are > 2 µM and 0.363 µM.
The like results for `COC(=O)n1nnc2ncccc21` were, in that order, > 200 µM and > 200 µM.
The like results for `O=C(O)c1ccc[n+](CC(=O)c2ccc(O)c(O)c2)c1` were, in that order, 0.0631 µM and > 200 µM.
For the compound `COc1cc(C2c3cc4c(cc3OC(NNC(N)=O)C2C)OCO4)cc(OC)c1O` (stereo not given), the EC50 is > 200 µM and the concentration for half-maximal inhibition (IC50) was 0.525 µM.
As to `O=C1CCCCCCCCCCC1CN1CCCC1` (stereo not given), the outcome was inactive.
With `Cc1cccc(C)c1NC(=O)CCC(=O)NC(N)=NC#N`, the EC50 is > 457 µM and the IC50 is > 457 µM.
For the compound `CC(C)(C)C(=O)OCOP(=O)(OCOC(=O)C(C)(C)C)OCC1OC(N2C=CC(N)NC2=O)CC1F` (stereo not given), the EC50 was 1.12 µM and the IC50 was 87.1 µM.
With `Cc1nc(N)c2nc(Nc3ccccc3)sc2n1`, the EC50 was > 141 µM and the 50% inhibitory concentration (IC50) stood at 66.1 µM.
On the same counts, the results for `Cc1ccccc1C(O)(c1nccn1C)c1nccn1C` are > 200 µM and > 200 µM.
The like results for `COC(=O)C(C(=O)C(=O)Nc1c(C)cccc1C(C)(C)C)c1nc2ccc(Cl)cc2[nH]c1=O` (stereo not given) were, in that order, > 55 µM and > 55 µM.
On the same counts, the results for `CC1=C(C(=O)OC23CC4CC(CC(C4)C2)C3)C(c2ccccc2OC(F)F)C(C(=O)OC23CC4CC(CC(C4)C2)C3)=C(C)N1` (stereo not given) are > 100 µM and > 100 µM.
In the case of `CC(=O)c1ccc2c(c1)CC1(C2)Cc2ccccc2C1=O` (stereo not given), the EC50 is > 200 µM and the concentration for half-maximal inhibition (IC50) amounted to 74.1 µM.
`O=c1[nH][nH]c(=O)c2c1[nH]c(=S)n2Cc1ccccc1`: the EC50 was > 912 µM and the IC50 was > 912 µM.
For `CC(C)=CCOC(=O)C(C)=[N+]=[N-]`, the EC50 is > 200 µM and the half-inhibitory concentration (IC50) stood at 170 µM.
As for `O=C1COc2cc(N3CCN(c4cccc(C(F)(F)F)c4)CC3)ccc2N1`, the EC50 is > 200 µM and the IC50 is > 200 µM.
In the case of `O=C(OCCN1CCNCC1)c1cc2ccccc2[nH]1`, the EC50 is > 200 µM and the 50% inhibitory concentration (IC50) is 26.9 µM.
Consider `COc1ccc(OC)c2c(C(=O)O)c(C(C)c3ccccc3)ccc12` (stereo not given), for which the outcome was inactive.
For the compound `CCOC(OCC)(OCC)C(Br)CC` (stereo not given), the EC50 is > 933 µM and the IC50 is > 933 µM.
On to `COc1ccc2c(c1)-c1[nH]c3ccccc3c1CC2`, for which the EC50 was > 200 µM and the IC50 stood at 12 µM.
On the same counts, the results for `O=c1c2c(c1=O)C1(SCCCS1)c1cc(Cl)ccc1O2` are > 200 µM and > 200 µM.
On the same counts, the results for `COc1ccc2c(c1)[n+](=O)c(C(C)=O)c(C)n2[O-]` are > 1000 µM and 355 µM.
The like results for `CCOC(=O)c1nc2ccccc2nc1Oc1ccc(C(=O)OC)cc1` were, in that order, > 200 µM and > 200 µM.
Consider `COC(=O)/C([O-])=C(\C(=O)OC)[n+]1cc(Br)cc2ccccc21`, for which the EC50 was > 200 µM and the half-inhibitory concentration (IC50) turned out to be 77.6 µM.
On the same counts, the results for `C=CC1(c2ccc3ccccc3c2)OCC(CC)O1` (stereo not given) are > 200 µM and 87.1 µM.
The like results for `CC[C@@H](C)C(=O)O[C@H]1[C@H](O)[C@H]2[C@@H](CN3C[C@@H](C)CC[C@H]3[C@@]2(C)O)[C@@H]2CC34O[C@]5(O)[C@@H](OC(=O)[C@@](C)(O)CC)CC[C@@]3(C)[C@@H]5[C@@H](OC(C)=O)[C@@H](OC(C)=O)[C@H]4[C@@]21O` were, in that order, > 200 µM and > 200 µM.
As for `CC1=C[C@]2(O)C(=O)[C@H](C)C[C@H]3[C@@H](CC[C@@](C)(O)/C=C\2C1=O)C3(C)C`, the EC50 is > 30.2 µM and the IC50 stood at 15.8 µM.
The like results for `O=C(O)Cc1c(-c2ccc([N+](=O)[O-])cc2)c(=O)oc2cc(O)ccc12` were, in that order, > 200 µM and 21.4 µM.
The like results for `C1CCC2(CC1)SSSC1(CCCCC1)SS2` were, in that order, > 100 µM and > 100 µM.
Take `COc1ccccc1NC(=S)Nc1ccccn1`: the EC50 was > 200 µM and the IC50 was > 200 µM.
Consider `NC(=S)N/N=C(\Cc1nc2ccc(Cl)cc2[nH]c1=O)C(=O)Nc1ccc(Cl)cc1`, for which the EC50 was > 41.7 µM and the half-inhibitory concentration (IC50) was > 41.7 µM.
In the case of `CCC(C)SSc1ccccc1C(=O)Nc1ccc(Cl)cc1` (stereo not given), the EC50 is > 200 µM and the half-maximal inhibitory concentration (IC50) is 0.776 µM.
For `Cc1nn(C)c2nc3ccc(Cl)cc3c(-c3ccccc3)c12`, the EC50 is > 200 µM and the half-inhibitory concentration (IC50) is > 200 µM.
In the case of `CCP(CC)(c1ccccc1)=c1c(=O)c(Cl)c(Cl)c(=O)c1=O`, the EC50 was > 200 µM and the IC50 was determined as 27.5 µM.
Regarding `CC12Nc3ccccc3C1=C(c1ccccc1)CC1C(=O)OC(=O)C12` (stereo not given), the EC50 was > 15.8 µM and the IC50 was > 15.8 µM.
Take `COC(=O)/C=C/C(=O)C1C(C(=O)OC)C2(C(=O)OC)CCC1(C(=O)OC)N2` (stereo not given): the result was inactive.
Same read-out and setting: then `O=C(O)c1ccccc1NS(=O)(=O)c1ccc(Cl)cc1`, with “inactive”; and `Cc1cccc(C2=C/C(=C(\SS/C(C(=O)c3ccc(OCC(=O)O)c(Cl)c3Cl)=C3\C=C(c4cccc(C)c4)SS3)C(=O)c3ccc(OCC(=O)O)c(Cl)c3Cl)SS2)c1`, with “inactive”.
Still for that read-out and setting: under `O=C(/C(=N/Nc1ccc([N+](=O)[O-])cc1)c1ccccc1)c1ccccc1` stands “inactive”.
Regarding `CCC(=O)c1cc(C(=O)C(=S)SC)cc(C(=O)C(=S)SC)c1`, the EC50 was 20 µM and the IC50 was 30.9 µM.
As to `CCC(C)C(NC(=O)C(CCC(=O)O)NC(=O)C(CCCCN)NC(=O)C(CO)NC(=O)C(CC(C)C)NC(=O)C(Cc1ccc(O)cc1)NC(=O)C(C)N)C(=O)NC(C)C(=O)NC(CO)C(=O)NC(CC(=O)O)C(=O)O` (stereo not given) (H-AYLSKEIASD-OH; configuration not given here), the EC50 was > 29.5 µM, the outcome was inactive and the IC50 is > 29.5 µM.
Consider `NN1C(=O)CS/C1=N\C(=S)N/N=C1/SCC(=O)N1N`, for which the EC50 was 57.5 µM and the IC50 turned out to be 85.1 µM.
Regarding `CC(=O)Nc1ccc2[nH]c(C(=O)N3CC(CCl)c4c3cc([N+](=O)[O-])c3ccccc43)cc2c1` (stereo not given), the EC50 was > 2 µM and the concentration for half-maximal inhibition (IC50) worked out at 1.7 µM.
As to `N#Cc1c(N=Cc2ccccc2)c(C(=O)Nc2ccccc2)n2c1CCCC2`, the EC50 was > 200 µM and the IC50 is > 200 µM.
`N#Cc1ncn(CCO)c1N`: the EC50 is > 200 µM and the half-inhibitory concentration (IC50) was > 200 µM.
For the compound `COc1ccc(C2=CSC3=NC(C)(C)CC(C)=NN23)cc1`, the EC50 is > 316 µM and the concentration for half-maximal inhibition (IC50) amounted to 170 µM.
On the same counts, the results for `CC(Oc1ccccc1)C(=O)NN` (stereo not given) are > 200 µM and > 200 µM.
As to `COc1ccc(C2Oc3c(cccc3OC)C=C2[N+](=O)[O-])cc1` (stereo not given), the EC50 is > 200 µM and the IC50 was found to be 1.51 µM.
The like results for `CCC(=O)OCNC(=O)NNC(=O)CCCC(=O)NNC(=O)NCOC(=O)CC` were, in that order, > 200 µM and > 200 µM.
Turning to `O=C1Sc2ccccc2C(=O)N2CCCC12` (stereo not given), the EC50 is > 200 µM and the IC50 was > 200 µM.
For `Nc1ccn(CCOC(=O)c2ccccc2)c(=O)n1`, the EC50 was > 52.5 µM and the IC50 was > 52.5 µM.
Turning to `C[Si]1(C)[Si](C)(C)[Si](C)(C)[Si](C)(C)[Si](C)(C)[Si]1(C)C`, the EC50 is > 28.8 µM and the IC50 was > 28.8 µM.
For `COc1cc(CC2C(=O)NC(=O)NC2=O)ccc1OCc1ccccc1`, the outcome was inactive.
For the compound `CCOC(=O)Cc1csc(/N=C\c2c(O)c3ccccc3oc2=O)n1`, the EC50 was > 200 µM and the IC50 was found to be 40.7 µM.
Consider `O=C(NCCN(CCNC(=O)c1cccc(=O)n1O)CCNC(=O)c1cccc(=O)n1O)c1cccc(=O)n1O`, for which the EC50 was > 200 µM and the half-inhibitory concentration (IC50) is > 200 µM.
As to `CCCCCC(O)[C@H]1C(=O)C[C@@H](O[Si](C)(C)C(C)(C)C)[C@@H]1/C=C/CCOCc1ccccc1` (stereo not given in full), the result was inactive.
As for `COC(=O)c1ccc2cc(O)ccc2c1`, the EC50 was > 200 µM and the IC50 amounted to 83.2 µM.

Values taken from PubChem BioAssay AID179 (DTP/NCI, 2004).
